Values joined by “and” are separate entries in the source; they are usually repeats but may differ in a detail not shown here. Equal values may be shown once. Numbered stars: 1 amine (or outer) side, 2 acyl side, 3 side chain; on linkers, the order of the positions; unused ones are H or OH. Bridge positions count the residues as written; N and C are the ends. Square brackets hold non-standard residues; d marks the D form. Peptide text beside a SMILES is read from it. X1 = CC(=O)NC(C(=O)OC(C(C)C)C(N[*:1])C(=O)[*:2])C(O)C(C)C; PhLac = O=C(O)[CH](O)Cc1ccccc1; NMeT = CN[CH](C(=O)O)[CH](C)O; NMeA = CN[CH](C)C(=O)O; NMeDha = C=C(NC)C(=O)O
Experiments:
[1] = target: T1, MRGPRA1 (Mus musculus, UniProt Q91WW5); test: Ca2+ imaging and concentration-Ca2+ response (EC50) in HEK293 cells expressing MRGPRA1; format: cell-based; details: for Effect on bilirubin-induced calcium responses: MRGPRA1 cells pre-incubated with 10 µM inhibitor for 30 min, 50 µM bilirubin; for Ca2+ response (concentration-response curve): MRGPRA1, triplicate wells (Fig 2D)
T1 construct: expressed in transfected cells
T1 sequence (Q91WW5 1-304): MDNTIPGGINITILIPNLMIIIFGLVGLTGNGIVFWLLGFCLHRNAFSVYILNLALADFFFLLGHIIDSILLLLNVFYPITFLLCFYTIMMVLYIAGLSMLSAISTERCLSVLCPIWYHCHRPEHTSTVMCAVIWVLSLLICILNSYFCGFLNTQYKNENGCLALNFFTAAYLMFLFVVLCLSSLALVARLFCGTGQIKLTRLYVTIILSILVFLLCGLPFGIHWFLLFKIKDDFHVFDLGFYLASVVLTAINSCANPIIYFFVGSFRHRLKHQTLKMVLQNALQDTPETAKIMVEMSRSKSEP
Experimental: (§1) All cultured cells were maintained in DMEM supplemented with 10% FBS and 1% Penicillin/Streptomycin at 37°C, 5% CO2. All data included were generated from cells tested for mycoplasma and found to be negative. Cells were imaged in calcium imaging buffer (CIB; 10 mM HEPES, 1.2 mM NaHCO3, 130 mM NaCl, 3 mM KCl, 2.5 mM CaCl2, 0.6 mM MgCl2, 20 mM glucose, and 20 mM sucrose at pH 7.4 and 290–300 mOsm). To monitor changes in intracellular [Ca^2+] ([Ca^2+]i), cells were loaded with either Fura 2-AM (HEK293 cells) or Fluo 4-AM (DRG neurons and mast cells) for 30 min in the dark at 37°C in CIB just prior to imaging. With Fura 2-AM, emission at 510 nm was monitored from excitation at both 340 nm and 380 nm. With Fluo 4-AM, emission at 520 nm was monitored from excitation at 488 nm. Cells were identified as responding if the intracellular [Ca^2+] rose by either 50% compared to baseline or 50% compared to the [Ca^2+]i change assayed during addition of 50 mM KCl (neurons only). Damaged, detached, high-baseline, and motion-activated cells were excluded from analysis.
(§2) In initial screens, HEK293 cells stably expressing the murine G-protein alpha-subunit Gα15, a unique Gα protein that non-selectively couples a large variety of GPCRs to phospholipase C ^30, were plated on poly-D-lysine-coated coverslips and transiently transfected with constructs encoding the MRGRPR of interest. 12–24 hr later, cells were loaded with the Fura 2-AM. Unless otherwise specified, compounds were perfused into the imaging chamber for approximately thirty seconds after a baseline period was established. Response was then monitored at 5 s intervals for an additional 60 s.
(§3) HEK293 cells stably expressing either MRGPRA1, MRGPRX4, and MRGRPC11 were seeded in poly-D-lysine-coated 96-well plates at 10,000 cells/well. Cells were loaded with Fura 2–AM, washed twice, and maintained in CIB. Haem metabolites were freshly dissolved in DMSO in dim light and then diluted into a buffer comprised of 20 mM Tris and 150 mM NaCl at pH 8.8. Potential changes in pH were evaluated prior to each experiment. EC50 values were determined from dose-responses performed in triplicate, repeated 2–4 times. To determine potential antagonism by QWF against bilirubin, cells were treated with varying doses of QWF for 1 min in CIB prior to application of agonist.
(§4) HEK293 stable cell lines expressing GFP-tagged MRGPRA3, MRGPRC11, MRGPRD, MRGPRX1, and MRGPRX2 were generated in previously described reports ([Liu et al., 2009]; [Liu et al., 2012]; [McNeil et al., 2015]). Briefly, plasmids containing the receptor of interest were transfected into HEK cells using Lipofectamine 3000. After 3 days, cells were then selected using 0.5 mg/mL G418. After 3 weeks, monoclonal colonies were established and each the highest expressing clones were identified. For this study, Mrgpra1 and MRGPRX4 were inserted into pEGFP-N1 and transfected into HEK293 cells. MRGPR-positive cells were selected using 0.5 mg/mL G418 for three weeks, after which GFP-positive cells were sorted by FACS and monoclonally expanded. Two lines expressing similar levels of MRGPRA1 and MRGPRX4, as measured by GFP fluorescence, were selected for study.

[2] = target: T2, MRGPRX4 (Homo sapiens, UniProt Q96LA9); test: Ca2+ imaging and concentration-Ca2+ response (EC50) in HEK293 cells expressing MRGPRX4; format: cell-based; details: for Effect on bilirubin-induced calcium responses: MRGPRX4 cells pre-incubated with 10 µM inhibitor for 30 min, 50 µM bilirubin; for Ca2+ response (concentration-response curve): MRGPRX4, triplicate wells (Fig 2I)
T2 construct: expressed in transfected cells
Experimental: as §1, §2, §3, §4

[3] = test system: mice; test: Scratching bouts after subcutaneous injection into the nape of the neck / back; format: in vivo, mouse; details: for Scratching bouts binned according to 5 min intervals (time course of itch behavior): one column per mouse, values of a mouse sum to 1 (Fig 1B)
Experimental: All applicable behavioral tests were performed and analysed with the experimenter blind to genotype. […] On the day before the experiment, animals were placed in the test chamber for 30 min before being subjected to a series of three mock injections with 5 min break periods in between. On the day of the experiment, animals were first allowed to acclimatize to the test chamber for 10 min before injection. […] A bout of scratching was defined as a continuous scratching movement with either hindpaw directed at the area of the injection site. In the cheek injection model, a wipe was defined as a single forepaw stroking the site of the injection. Use of both forepaws on the face or cheek was considered as grooming behavior. […] For H1R block, 30 mg/kg of cetirizine HCl (pH 7.4) was given intraperitoneally thirty minutes prior to injection of bilirubin. Licking behavior was quantified in seconds and identified as the licking of the toes or footpad of the hind paw site of injection that was neither preceded nor followed by licking of any other portion of the body.

T2 sequence (Q96LA9 whole entry): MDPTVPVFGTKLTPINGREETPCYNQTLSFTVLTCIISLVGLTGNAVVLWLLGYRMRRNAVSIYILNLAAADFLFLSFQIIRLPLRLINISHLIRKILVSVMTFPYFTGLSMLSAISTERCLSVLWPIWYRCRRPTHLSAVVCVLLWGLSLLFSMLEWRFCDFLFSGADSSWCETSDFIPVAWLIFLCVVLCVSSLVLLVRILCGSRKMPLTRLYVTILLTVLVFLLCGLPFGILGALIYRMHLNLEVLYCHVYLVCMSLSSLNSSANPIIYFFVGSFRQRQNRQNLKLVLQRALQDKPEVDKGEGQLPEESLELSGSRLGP

## C=C1C(=O)NC(C)C(=O)N(C)C(C)C(=O)NC(C(OC(=O)C(NC(C)=O)C(O)C(C)C)C(C)C)C(=O)N(C)C(C(C)OC)C(=O)OC(C)C(NC(C)=O)C(=O)OC(Cc2ccccc2)C(=O)N1C (stereo not shown) [YM-254890, reference compound] (Ac-T[PhLac][NMeDha]A[NMeA][X1][NMeT](Me); ester 1-C; configuration not given here)
[1]
  Effect on bilirubin-induced calcium responses: abolished bilirubin-induced calcium responses
[2]
  Effect on bilirubin-induced calcium responses: inhibited bilirubin-induced calcium responses

## O=C(O)COCCN1CCN(C(c2ccccc2)c2ccc(Cl)cc2)CC1 (stereo not shown) [cetirizine]
[3]; 30 mg/kg i.p. 30 min prior to bilirubin at the nape
  Effect on scratching of mice injected with bilirubin: failed to alleviate scratching behavior

## COc1ccc2c(c1)CC[C@@H]1[C@@H]2CC[C@]2(C)[C@@H](NCCCCCCN3C(=O)C=CC3=O)CC[C@@H]12 [U73122, reference compound]
[1]
  Effect on bilirubin-induced calcium responses: abolished bilirubin-induced calcium responses
[2]
  Effect on bilirubin-induced calcium responses: inhibited bilirubin-induced calcium responses

## C=CC1=C(C)/C(=C/C2=NC(=C\c3[nH]c(/C=C4\NC(=O)C(C)=C4C=C)c(C)c3CCC(=O)O)/C(CCC(=O)O)=C2C)NC1=O [biliverdin]
[3]; metabolite injected into mice (Fig 1D)
  Scratching behavior: did not induce scratching
[1]; [Ligand] 7.8125e-6 M
  Ca2+ response (concentration-response curve): 0
[1]; [Ligand] 1.5625e-5 M
  Ca2+ response (concentration-response curve): 0
[1]; [Ligand] 3.125e-5 M
  Ca2+ response (concentration-response curve): 0
[1]; [Ligand] 6.25e-5 M
  Ca2+ response (concentration-response curve): 0
[1]; [Ligand] 0.000125 M
  Ca2+ response (concentration-response curve): 0
[1]; [Ligand] 0.00025 M
  Ca2+ response (concentration-response curve): 0
[1]; [Ligand] 0.0005 M
  Ca2+ response (concentration-response curve): 0
[1]; [Ligand] 0.001 M
  Ca2+ response (concentration-response curve): 0
[2]; [Ligand] 7.8125e-6 M
  Ca2+ response (concentration-response curve): 0
[2]; [Ligand] 1.5625e-5 M
  Ca2+ response (concentration-response curve): 0
[2]; [Ligand] 3.125e-5 M
  Ca2+ response (concentration-response curve): 0
[2]; [Ligand] 6.25e-5 M
  Ca2+ response (concentration-response curve): 0
[2]; [Ligand] 0.000125 M
  Ca2+ response (concentration-response curve): 0
[2]; [Ligand] 0.00025 M
  Ca2+ response (concentration-response curve): 0
[2]; [Ligand] 0.0005 M
  Ca2+ response (concentration-response curve): 0
[2]; [Ligand] 0.001 M
  Ca2+ response (concentration-response curve): 0

## CCN(CC)CCCC(C)Nc1ccnc2cc(Cl)ccc12 (stereo not shown) [Chloroquine, chloroquine]
[3]; time 5 min
  Scratching bouts binned according to 5 min intervals (time course of itch behavior): 0.201 and 0.03846 and 0.1149 and 0.1078 and 0.05405 and 0 (2×) and 0.1374 and 0.04255 and 0.2424 and 0.1529
[3]; time 10 min
  Scratching bouts binned according to 5 min intervals (time course of itch behavior): 0.2353 and 0.1065 and 0.2213 and 0.1121 and 0.1459 and 0.2993 and 0.3626 and 0.4113 and 0.6263 and 0.2639 and 0.4204
[3]; time 15 min
  Scratching bouts binned according to 5 min intervals (time course of itch behavior): 0.348 and 0.3787 and 0.1447 and 0.2155 and 0.3676 and 0.3673 and 0.4011 and 0.3191 and 0 and 0.5 and 0.2548
[3]; time 20 min
  Scratching bouts binned according to 5 min intervals (time course of itch behavior): 0.1618 and 0.2426 and 0.2681 and 0.2284 and 0.1838 and 0.1837 and 0.0989 and 0.09929 and 0.1212 and 0 (2×)
[3]; time 25 min
  Scratching bouts binned according to 5 min intervals (time course of itch behavior): 0.05392 and 0.142 and 0.1447 and 0.1336 and 0.09189 and 0.1361 and 0 (3×) and 0.2361 and 0.172
[3]; time 30 min
  Scratching bouts binned according to 5 min intervals (time course of itch behavior): 0 (4×) and 0.09172 and 0.1064 and 0.2026 and 0.1568 and 0.01361 and 0.1277 and 0.0101

## NCCc1c[nH]cn1 [Histamine, histamine]
[3]; time 5 min
  Scratching bouts binned according to 5 min intervals (time course of itch behavior): 0.02985 and 0.0102 and 0 (10×) and 0.134
[3]; time 10 min
  Scratching bouts binned according to 5 min intervals (time course of itch behavior): 0.3881 and 0.5714 and 0.08333 and 0.1818 and 0.3333 and 0.527 and 0.02857 and 0.1765 and 0.2143 and 0.1923 and 0.3918 and 0.5938 and 0.4348
[3]; time 15 min
  Scratching bouts binned according to 5 min intervals (time course of itch behavior): 0.2985 and 0.07143 and 0.8333 and 0.6545 and 0.625 and 0.3919 and 0.4286 and 0.2353 and 0.3367 and 0.3846 and 0.1031 and 0 and 0.5435
[3]; time 20 min
  Scratching bouts binned according to 5 min intervals (time course of itch behavior): 0.2687 and 0.1633 and 0 (2×) and 0.1636 and 0.04167 and 0.08108 and 0.2286 and 0.4118 and 0.08163 and 0.1154 and 0.2344 and 0.02174
[3]; time 25 min
  Scratching bouts binned according to 5 min intervals (time course of itch behavior): 0.01493 and 0.1837 and 0.08333 and 0 (4×) and 0.3143 and 0.1765 and 0.1939 and 0.3077 and 0.2474 and 0.1719
[3]; time 30 min
  Scratching bouts binned according to 5 min intervals (time course of itch behavior): 0 (11×) and 0.1735 and 0.1237
